The structures appear in SMILES notation.

The term EC50 denotes the concentration at which the effect is half-maximal.

One assay concerns HBV. Kind of assay: HepG2-NTCP infection protocol, HBeAg quantification by ECL-ELISA. The format is cell-based. To be noted: HepG2-NTCP cells infected with HBV at MOI 50; compound 24 hours, then 72 hours; HBeAg in supernatant. As to the method: HepG2 cells expressing the sodium taurocholate cotransporting polypeptide (HepG2-NTCP) were maintained in culture using HepG2-NTCP growth medium (DMEM (HyClone, Cat #SH30243.02) supplemented with 10% FBS, 150 μg/mL G418 (Alfa Aesar, Cat #J62671), 50 U/mL penicillin-streptomycin (Invitrogen, Cat #15140-122), and 0.5 μg/mL blasticidin (Sigma, Cat #15205)). Prior to infection, the cells were washed twice with 1×DPBS (Invitrogen, Cat #14190-136) and treated with 3 mL of 0.05% trypsin (Invitrogen, Cat #25200-056) to dissociate the cells. Following dissociation, 10 mL of HepG2-NTCP growth medium was added to the cells to neutralize the trypsin and the cells were then centrifuged at 1,300 rpm for 5 minutes. Following centrifugation, the cells were resuspended in 10 mL of HepG2-NTCP growth medium, counted, and then centrifuged at 1,300 rpm for 5 minutes. The cell pellet was resuspended in DMEM supplemented with 5% FBS, 50 U/mL penicillin-streptomycin, 4% PEG-8000 (Hamilton Research, Cat #HR2-515), and 1% DMSO (Sigma, Cat #D4540) to a density of 5.6×10^5 cells/mL and infected with HBV at an MOI of 50. Immediately after infection, 90 μL of the cell/HBV mixture was added to a 96-well plate containing 10 μL of compound and incubated at 37° C. for 24 hours (2% final DMSO concentration). After the incubation, the infection media was removed and replaced with DMEM supplemented with 5% FBS, 50 U/mL penicillin-streptomycin, and 1% DMSO and incubated for an additional 72 hours. At the end of the incubation, the plates were spun at 1,800 rpm for 8 minutes and the supernatant was removed for HBeAg quantification using electrochemiluminescence enzyme-linked immunosorbent assays (ECL-ELISA).
To conduct the HBeAg ECL-ELISA, Lumitrack high-binding 96-well plates (Greiner, Cat #655074) were treated with 625 ng/mL HBeAg mAb (Biocheck, Cat #70426) in 1×DPBS for 2 hours at 25° C. with shaking. The HBeAg mAb solution was then removed and the plates treated with 1×DPBS containing 0.5% bovine serum albumin (BSA) (Sigma, Cat #A7030-100 g) for 2 hours at 25° C. with shaking. The HBeAg-coated plates were then washed 4 times with 1×DPBS containing 0.05% Tween 20 (DPBS-T) (Thermo Fisher Scientific, Cat #J61544-K2). Following the wash, 90 μL of HRP-conjugated antibody (Fitzgerald, Cat #61-H10K), diluted 1:8,000 in 1×DPBS-T containing 0.5% BSA, was added to the HBeAg-coated plates along with 10 μL of sample. The plates were then incubated for 2 hours at 25° C. with shaking. Following the incubation, the sample was then removed and 200 μL of 1×PBS-T was added and the plates were incubated for 10 minutes at 25° C. with shaking. The plates were then washed 6 times with 1×PBS-T and blotted dry. 80 μL of ECL substrate (Millipore, Cat #WBKLS0500) was then added to the plate and the luminescence was measured using a Tecan M1000 Pro plate reader.
In general terms: An ELISA detects its analyte on a solid surface through an enzyme-linked reagent.
With `CCCCC1CN(C2CCC(F)(F)CC2)c2cc(SC)c(O/C=C(\F)C(=O)O)cc2S(=O)(=O)N1C` (single isomer, unassigned) [Example 2a], the EC50 was less than 100 nM.
Same read-out and setting: under `CCCCC1CN(C2CCC(F)(F)CC2)c2cc(SC)c(O/C=C(\F)C(=O)O)cc2S(=O)(=O)N1C` (single isomer, unassigned) [Example 2b] stands 100 to 1000 nM.

The same assay, now with this note: Hepatitis B virus, HepG2-NTCP cells infected with HBV at MOI 50; compound 24 hours, then 72 hours; HBeAg in supernatant.
For the molecule `CCCC[C@H]1CN([C@@H]2CCN(C)C2)c2cc(SC)c(O/C=C(\F)C(=O)O)cc2S(=O)(=O)N1C` (relative stereo) [Example 54], the EC50 was in the range of 1000 to 5000 nM.
`CCCC[C@H]1CN(C2CCN(C)C2)c2cc(SC)c(O/C=C(\F)C(=O)O)cc2S(=O)(=O)N1C` (stereo in doubt) [Example 55] returned an EC50 of 1000 to 5000 nM.
The same measure, in the same setting: with `CCCCC1CN(C2CCC(F)(F)CC2)c2cc(SC)c(O/C=C(\F)C(=O)O)cc2S(=O)(=O)N1C` (centres unmarked) [Example 2, (Z)-3-((3-butyl-5-(4,4-difluorocyclohexyl)-2-methyl-7-(methylthio)-1,1-dioxido-2,3,4,5-tetrahydrobenzo[f][1,2,5]thiadiazepin-8-yl)oxy)-2-fluoroacrylic acid] the figure was less than 100 nM.
`CCCCC1CN(C2CCC(F)(F)CC2)c2cc(SC)c(O/C=C/C(=O)O)cc2S(=O)(=O)N1C` (centres unmarked) [Example 3] showed a 50% effective concentration (EC50) of less than 100 nM.
`CCCCC1CN(c2cccnc2)c2cc(SC)c(O/C=C/C(=O)O)cc2S(=O)(=O)N1C` (centres unmarked) [Example 4] gave an EC50 of 1000 to 5000 nM.
Regarding `CCCCC1CN(c2ccccn2)c2cc(SC)c(O/C=C/C(=O)O)cc2S(=O)(=O)N1C` (centres unmarked) [Example 5], the EC50 was in the range of 100 to 1000 nM.
Still for that read-out and setting: under `CCCCC1CN(c2ccc(N3CCCC3)cc2)c2cc(SC)c(O/C=C/C(=O)O)cc2S(=O)(=O)N1C` (centres unmarked) [Example 8] stands less than 100 nM.
Molecule `C#Cc1ccc(N2CC(CCCC)N(C)S(=O)(=O)c3cc(O/C=C/C(=O)O)c(SC)cc32)cc1` (centres unmarked) [Example 9] returned an EC50 of less than 100 nM.
Turning to `CCCCC1CN(Cc2ccc(F)cc2)c2cc(SC)c(O/C=C(\F)C(=O)O)cc2S(=O)(=O)N1C` (centres unmarked) [Example 10], the EC50 was less than 100 nM.
Molecule `CCCCC1CN(c2ccc(N3CCCC3)cc2)c2cc(SC)c(O/C=C(\F)C(=O)O)cc2S(=O)(=O)N1C` (centres unmarked) [Example 11] returned a half-maximal effective concentration (EC50) of less than 100 nM.
On the same count and under the same terms, under `CCCCC1CN(Cc2ccc(F)cc2)c2cc(SC)c(O/C=C(\F)C(=O)OCC)cc2S(=O)(=O)N1C` (centres unmarked) [Example 12] stands 100 to 1000 nM; under `CCCCC1CN(Cc2ccc(SC)cc2)c2cc(SC)c(O/C=C(\F)C(=O)OCC)cc2S(=O)(=O)N1C` (centres unmarked) [Example 13], 100 to 1000 nM; under `CCCCC1CN(C2CCCC2)c2cc(SC)c(O/C=C/C(=O)O)cc2S(=O)(=O)N1C` (centres unmarked) [Example 14], 100 to 1000 nM.
The same measure, in the same setting: under `CCCCC1CN(Cc2ccccc2)c2cc(SC)c(O/C=C/C(=O)O)cc2S(=O)(=O)N1C` (centres unmarked) [Example 15] stands 100 to 1000 nM; under `CCCCC1CN(C2CCCCC2)c2cc(SC)c(O/C=C(\F)C(=O)O)cc2S(=O)(=O)N1C` (centres unmarked) [Example 16], less than 100 nM.
On the same count and under the same terms, with `CCCCC1CN(Cc2ccc(SC)cc2)c2cc(SC)c(O/C=C(\F)C(=O)O)cc2S(=O)(=O)N1C` (centres unmarked) [Example 17] the figure was less than 100 nM.
Turning to `CCCCC1CN(C2CCC(OC)CC2)c2cc(SC)c(O/C=C(\F)C(=O)OCC)cc2S(=O)(=O)N1C` (centres unmarked) [Example 18], the EC50 is less than 100 nM.
The same measure, in the same setting: under `CCCCC1CN(C2CCOCC2)c2cc(SC)c(O/C=C(\F)C(=O)OCC)cc2S(=O)(=O)N1C` (centres unmarked) [Example 19] stands 100 to 1000 nM.
Still for that read-out and setting: under `CCCCC1CN(c2ncccn2)c2cc(SC)c(O/C=C(\F)C(=O)OCC)cc2S(=O)(=O)N1C` (centres unmarked) [Example 20] stands less than 100 nM.
Same read-out and setting: under `CCCCC1CN(C2CCCOC2)c2cc(SC)c(O/C=C(\F)C(=O)OCC)cc2S(=O)(=O)N1C` (centres unmarked) [Example 21] stands 100 to 1000 nM; under `CCCCC1CN(C2CCOC2)c2cc(SC)c(O/C=C/C(=O)O)cc2S(=O)(=O)N1C` (centres unmarked) [Example 22], 1000 to 5000 nM.
In the case of `CCCCC1CN(C2CCOCC2)c2cc(SC)c(O/C=C/C(=O)O)cc2S(=O)(=O)N1C` (centres unmarked) [Example 23], the half-maximal effective concentration (EC50) fell in the range of 100 to 1000 nM.
With `CCCCC1CN(c2ncccn2)c2cc(SC)c(O/C=C(\F)C(=O)O)cc2S(=O)(=O)N1C` (centres unmarked) [Example 24], the EC50 lay in the range of 100 to 1000 nM.
Same read-out and setting: with `CCCCC1CN(C2CCCOC2)c2cc(SC)c(O/C=C(\F)C(=O)O)cc2S(=O)(=O)N1C` (centres unmarked) [Example 25] the figure was less than 100 nM.
With `CCCCC1CN(C2CCOCC2)c2cc(SC)c(O/C=C(\F)C(=O)O)cc2S(=O)(=O)N1C` (centres unmarked) [Example 26], the concentration for a half-maximal effect (EC50) was 100 to 1000 nM.
Molecule `CC#CCN1CC(CCCC)N(C)S(=O)(=O)c2cc(O/C=C(\F)C(=O)O)c(SC)cc21` (centres unmarked) [Example 27] returned a half-maximal effective concentration (EC50) of less than 100 nM.
The same measure, in the same setting: under `CCCCC1CN(Cc2ccccc2)c2cc(SC)c(O/C=C(\F)C(=O)O)cc2S(=O)(=O)N1C` (centres unmarked) [Example 28] stands less than 100 nM.
For `CCCCC1CN(C2CCC(F)CC2)c2cc(SC)c(O/C=C(\F)C(=O)OCC)cc2S(=O)(=O)N1C` (centres unmarked) [Example 29], the EC50 was in the range of 100 to 1000 nM.
On the same count and under the same terms, under `CCCCC1CN(C2CCC(F)CC2)c2cc(SC)c(O/C=C(\F)C(=O)O)cc2S(=O)(=O)N1C` (centres unmarked) [Example 30] stands less than 100 nM; under `CCCCC1CN(C2CCC(O)CC2)c2cc(SC)c(O/C=C(\F)C(=O)O)cc2S(=O)(=O)N1C` (centres unmarked) [Example 31], 100 to 1000 nM; under `CCCCC1CN(C2CCCC2)c2cc(SC)c(O/C=C(\F)C(=O)O)cc2S(=O)(=O)N1C` (centres unmarked) [Example 32], less than 100 nM.
The molecule `CCCCC1CN(Cc2cc(F)ccc2F)c2cc(SC)c(O/C=C(\F)C(=O)OCC)cc2S(=O)(=O)N1C` (centres unmarked) [Example 33] came in with an EC50 of less than 100 nM.
As to `CCCCC1CN(Cc2cc(F)ccc2F)c2cc(SC)c(O/C=C(\F)C(=O)O)cc2S(=O)(=O)N1C` (centres unmarked) [Example 34], the half-maximal effective concentration (EC50) is less than 100 nM.
`CCCCC1CN(CC2CCC(F)(F)CC2)c2cc(SC)c(O/C=C(\F)C(=O)OCC)cc2S(=O)(=O)N1C` (centres unmarked) [Example 35] returned an EC50 of 100 to 1000 nM.
On the same count and under the same terms, with `CCCCC1CN(CC2CCC(F)(F)CC2)c2cc(SC)c(O/C=C(\F)C(=O)O)cc2S(=O)(=O)N1C` (centres unmarked) [Example 36] the figure was less than 100 nM.
`CCCCC1CN(Cc2cccc(F)c2)c2cc(SC)c(O/C=C(\F)C(=O)OCC)cc2S(=O)(=O)N1C` (centres unmarked) [Example 37] displayed an EC50 of less than 100 nM.
For the molecule `CCCCC1CN(Cc2cccc(SC)c2)c2cc(SC)c(O/C=C(\F)C(=O)OCC)cc2S(=O)(=O)N1C` (centres unmarked) [Example 38], the concentration giving a half-maximal response (EC50) lay within 100 to 1000 nM.
`CCCCC1CN(C(=O)c2ccccc2)c2cc(SC)c(O/C=C(\F)C(=O)OCC)cc2S(=O)(=O)N1C` (centres unmarked) [Example 39] had an EC50 of 1000 to 5000 nM.
Same read-out and setting: under `CCCCC1CN(Cc2cccc(F)c2)c2cc(SC)c(O/C=C(\F)C(=O)O)cc2S(=O)(=O)N1C` (centres unmarked) [Example 40] stands less than 100 nM; under `CCCCC1CN(C(=O)c2ccccc2)c2cc(SC)c(O/C=C(\F)C(=O)O)cc2S(=O)(=O)N1C` (centres unmarked) [Example 41], 1000 to 5000 nM.
Still for that read-out and setting: with `CCCCC1CN(Cc2ccc(F)c(F)c2)c2cc(SC)c(O/C=C(\F)C(=O)OCC)cc2S(=O)(=O)N1C` (centres unmarked) [Example 42] the figure was 100 to 1000 nM.
Same read-out and setting: with `CCCCC1CN(Cc2ccc(F)c(F)c2)c2cc(SC)c(O/C=C(\F)C(=O)O)cc2S(=O)(=O)N1C` (centres unmarked) [Example 43] the figure was less than 100 nM; with `CCCCC1CN(C(C)c2ccccc2)c2cc(SC)c(O/C=C(\F)C(=O)OCC)cc2S(=O)(=O)N1C` (centres unmarked) [Example 44], 100 to 1000 nM.
`CCCCC1CN(C2CC3CCC2C3)c2cc(SC)c(O/C=C(\F)C(=O)O)cc2S(=O)(=O)N1C` (centres unmarked) [Example 45] returned an EC50 of 1000 to 5000 nM.
The same measure, in the same setting: with `CCCCC1CN(C2CCNCC2)c2cc(SC)c(O/C=C(\F)C(=O)O)cc2S(=O)(=O)N1C` (centres unmarked) [Example 46] the figure was 1000 to 5000 nM; with `CCCCC1CN(C2CCN(C)CC2)c2cc(SC)c(O/C=C(\F)C(=O)O)cc2S(=O)(=O)N1C` (centres unmarked) [Example 47], 1000 to 5000 nM; with `CCCCC1CN(C2CCN(C(C)=O)CC2)c2cc(SC)c(O/C=C(\F)C(=O)O)cc2S(=O)(=O)N1C` (centres unmarked) [Example 48], 1000 to 5000 nM.
`CCCCC1CN(c2nccs2)c2cc(SC)c(O/C=C(\F)C(=O)O)cc2S(=O)(=O)N1C` (centres unmarked) [Example 49] came in with an EC50 of 100 to 1000 nM.

The record behind these values is patent US20250163009A1, “BENZOTHIA(DIA)ZEPINE COMPOUNDS FOR TREATMENT OF HBV AND HDV” (Assembly Biosciences, Inc., priority 2022, published 2025).
